Residues, ends and D or L forms follow the SMILES beside them. No end group written: not given here.
Tests used:
[1] = tested on: A. tumefaciens; conditions: 24 h, 10 μM
[2] = tested on: E. amylovora; conditions: 24 h, 10 μM
[3] = tested on: L. crescens; conditions: 10 μM
[4] = tested on: E. coli; assay: Bacterial growth inhibition by OD600 absorbance, E. coli; type: cell-based, E. coli (DH5-alpha); conditions: peptide 10 μM, 24 hours at 37° C., OD 600 nm
Experimental: (§1) Antimicrobial activity of antimicrobial peptides was tested against the agricultural microbial pests A. tumefaciens, E. amylovora, E. coli, and X. citri, using OD absorbance measurement to detect bacterial growth.
(§2) Antimicrobial peptides were synthesized using solid phase peptide synthesis method and resuspended in 10% DMSO to a 1 mM stock concentration. The stock solution was aliquoted in cryovials and stored at −80° C.
(§3) An aliquot of 198 μl of the bacterial culture was added to each well in a 96-well plate and 2 μl of a 1 mM peptide stock solution was added to each well, for a final treatment concentration of 10 μM of a given peptide. Media only wells were included to control for contamination. The positive controls were 50 μg/ml oxytetracycline hydrochloride and 500 μg/ml streptomycin sulfate. A 0.1% DMSO treatment was included as a negative control.
(§4) An initial absorbance reading of the bacterial suspensions was taken at 600 nm. Then, the bacteria were grown in an incubator at 30° C. (A. tumefaciens, E. amylovora, X. citri) or 37° C. (E. coli) for 24 hours, after which the final absorbance reading was measured. Using the initial and final absorbance reading compared to negative and positive controls, the percent inhibition of the bacterial strain by given peptide treatment was determined.

[5] = tested on: X. citri; assay: Bacterial growth inhibition by OD600 absorbance, X. citri; type: cell-based, X. citri subsp. citri (ATCC 49118); conditions: peptide 10 μM, 24 hours at 30° C., OD 600 nm
Experimental: as §1, §2, §3, §4

| Molecule | growth inhibition, A. tumefaciens [1] | growth inhibition, E. amylovora [2] | growth inhibition, L. crescens [3] | growth inhibition, E. coli [4] [%] | growth inhibition, X. citri [5] [%] |
| --- | --- | --- | --- | --- | --- |
| CSCC[C@H](NC(=O)CNC(=O)[C@H](C)NC(=O)[C@H](CCC(=O)O)NC(=O)[C@H](CCCCN)NC(=O)[C@H](C)NC(=O)[C@@H](NC(=O)CNC(=O)[C@H](CCCCN)NC(=O)[C@H](CC(C)C)NC(=O)[C@H](CC(C)C)NC(=O)[C@H](CC(=O)O)NC(=O)CNC(=O)[C@H](Cc1ccccc1)NC(=O)[C@H](C)NC(=O)CN)C(C)C)C(=O)N[C@@H](CCCCN)C(=O)N[C@@H](CC(C)C)C(=O)N[C@@H](CC(C)C)C(=O)N[C@@H](CC(N)=O)C(=O)N[C@@H](CCSC)C(=O)N[C@@H](C)C(=O)N[C@@H](CCC(N)=O)C(=O)N[C@@H](CS)C(=O)N[C@@H](CCCCN)C(=O)N[C@@H](CC(C)C)C(=O)N[C@@H](CO)C(=O)NCC(=O)N[C@@H](CCCCN)C(=O)N[C@@H](CS)C(=O)O [compound 19] (H-GAFGDLLKGVAKEAGMKLLNMAQCKLSGKC-OH; N-terminus and C-terminus assumed) | <90% | <90% | <90% |  |  |
| AFWKKFFKKFFKSAKKFG [compound 67] | 99.57% | 100.00% | <90% | 100.00 | 100.00 |
| AIWKKIIKKIIKSAKKIG [compound 78] | 100.00% | 100.00% | <90% | <90 | 100.00 |
| ALWKTLLKHVGKAAGKAALNAVTDMVNQ [compound 25] | 100.00% | 100.00% | <90% | 100.00 | 100.00 |
| AWKETIRKYLKNEIKKKWRKAVIAW [compound 14] | 100.00% | 100.00% | <90% | 100.00 | 100.00 |
| FFRNLWKGAKAAFRAGHAAWRA [compound 41] | 100.00% | 100.00% | <90% | <90 | 100.00 |
| FKRLEKLFKKIWNWK [compound 79] | 100.00% | 100.00% | <90% | <90 | 100.00 |
| FQRYFHRYARFLAKIWKG [compound 62] | 100.00% | 100.00% | <90% | <90 | 100.00 |
| FRIRVRVKWKLFKKI [compound 81] | 100.00% | 100.00% | <90% | 100.00 | <90 |
| GANALKKYFTILKKFFKLAW [compound 61] | <90% | <90% | <90% | 100.00 | <90 |
| GFGTILKALAKIAGKVVKKLATKPGATYMLKENLK [compound 7] | 100.00% | 100.00% | <90% | 100.00 | 100.00 |
| GIGKFLHSAKKFGKAFVGEIMNSKKKKKKKKKK [compound 5] | 98.68% | <90% | <90% | <90 | 100.00 |
| GIGKLFLHAAKKFAKAFVAEKMNS [compound 36] | 100.00% | 100.00% | <90% | <90 | 100.00 |
| GIKDLLKGAAKALVKTVLK [compound 87] | 98.43% | <90% | <90% | <90 | <90 |
| GWWRRTVDKVRNAGRKVAGFASKACGALGH [SEQ ID NO: 13] | greater than 90% | greater than 90% | greater than 90% |  |  |
| IWSFLIKAATKLLPSLFGGGKKDS [SEQ ID NO: 39] |  |  | greater than 90% |  |  |
| KFWSLLKKALRLWANVL [SEQ ID NO: 76] | greater than 90% | greater than 90% | greater than 90% |  |  |
| KKFLHSAKKWLKAFVKLFKNW [SEQ ID NO: 33] | greater than 90% |  | greater than 90% |  |  |
| KWKSFIKNLEKVLKKGPILANLVSIV [SEQ ID NO: 23] | greater than 90% | greater than 90% | greater than 90% |  |  |
| MQFITDLIKKAVDFIKGLFGNK [compound 43] | <90% | <90% |  | 94.72 | <90 |
| NAGSLLSGWG [compound 144] | <90% | <90% |  | <90 | <90 |
| NKVKEWIKYLKSLFS [compound 96] | 100.00% | 100.00% |  | <90 | <90 |
| RLSRIVVIRVSR [compound 132] | <90% | <90% |  | <90 | <90 |
| SWLSKTAKKLENSAKKRISEGIAIAIQGGPR [compound 11] | 99.35% | 100.00% |  | 100.00 | 100.00 |
| VKLVYPLKVKLYP [compound 119] | <90% | <90% |  | <90 | <90 |
| VKLYPVKLYP [compound 143] | <90% | <90% |  | <90 | <90 |
| VRLRIRVRVIRK [compound 118] | 100.00% | 100.00% |  | 100.00 | 100.00 |
| VRVKVRVKVRVK [compound 131] | <90% | 100.00% |  | 99.54 | <90 |
| WKIKWKIKWKIK [compound 105] | <90% | <90% |  | <90 | <90 |
| YSLQMGATAIKQVKKLFKKKGG [compound 56] | <90% | <90% |  | <90 | <90 |

Reference: patent US20250381242A1 (INVAIO SCIENCES, INC., priority 2024, published 2025)
